Measurements taken from patent EP0906100B1, “USE OF 5-HT 1A? RECEPTOR ANTAGONISTS FOR THE TREATMENT OF URINARY INCONTINENCE” (RECORDATI S.A., priority 1996, dated 1997).

Columns and labels:
[1] = system: rhythmic bladder voiding contractions; assay: Volume-induced rhythmic bladder voiding contractions in anaesthetized rats; type: in vivo; conditions: for AMPLITUDE mm Hg before treatment / FREQUENCY No. contr./15 min before treatment: baseline; for AMPLITUDE mm Hg before treatment / AMPLITUDE mm Hg after treatment: animals with frequency reduction <50%; for AMPLITUDE mm Hg before treatment / FREQUENCY No. contr./15 min before treatment / AMPLITUDE mm Hg after treatment / FREQUENCY No. contr./15 min after treatment: mean±S.E.; for BLADDER CONTRACTIONS Disappearance time: duration of bladder quiescence, mean (S.E. in next cell)
Protocol: Female Sprague Dawley rats weighing 225-275 g (Crl: CD° BR, Charles River Italia) were used. The animals were housed with free access to food and water and were maintained on a forced 12 h alternating light-dark cycle at 22-24°C for at least one week, except during the experiment. The activity on the rhythmic bladder voiding contractions was evaluated according to the method of Dray (J. Pharmcol. Methods, 13:157, 1985), with some modifications as in Guarneri (Phannacol. Res., 27:173, 1993). […] The catheter was tied in place with a ligature around the external urethral orifice and was connected with conventional pressure transducers (Statham P23 ID/P23 XL). […] The bladder was then filled via the recording catheter by incremental volumes of warm (37°C) saline until reflex bladder voiding contractions occurred (usually 0.8-1.5 ml). Two parameters were recorded from the cystometrogram: the frequency of voiding contractions, calculated by counting the number of peaks/15 min of observation, and the mean amplitude of these contractions (mean height of the peaks in mmHg) in the same time period. For intravenous (i. v. ) injection of bioactive compounds, a PE 50 polyethylene tubing filled with physiological saline was inserted into the jugular vein.
Bioactivity was assessed in individual animals (using 6-10 rats per dose), by recording the number and height of the peaks for 15 min after drug injection and comparing them with those previously recorded for 15 min after the intravenous administration of vehicle alone. […] The statistical significance of changes in frequency and amplitude before and after treatment was assessed by Student's t test for paired data. Changes showing a probability P<0.01 were considered significant.
An all-or-none criterion was also used to compare bioactivity in terms of ED50 values. Rats showing a treatment-related change of ≥30% relative to the basal value were considered to be positive. Quantal dose-response curves and ED50 values were evaluated by the method of Bliss (J. Pharm. Pharmacol., 11:192, 1938).
The rapid distension of the urinary bladder in urethane-anaesthetized rats produced a series of rhythmic bladder voiding contractions whose characteristics have been described (Maggie et al., Brain Res., 380, 83, 1986; Maggi, et al., J. Pharmacol. Exp. Ther., 230, 500, 1984). The frequency of these contractions is related to the sensory afferent arm of reflex micturition and to the integrity of the micturition centre, while their amplitude is a property of the efferent arm of the reflex (Maggi et al., J. Pharmacol. Meth., 15, 157, 1986; Maggi et al., Brain Res.. 415, 1, 1987; Maggi et al., Naun. Schmied. Arch. Pharmacol., 332, 276, 1986; Maggi et al., J. Urol., 136, 696, 1986).

α1-adrenergic receptor = assay: [3H]prazosin binding (α1-receptors), rat cerebral cortices; conditions: 0.35 nM [3H]prazosin, read-out: Binding affinity for the α1-adrenergic receptor, Ki
Protocol: [^3H]prazosin binding (α1-receptors):
Rat cerebral cortices were homogenized in 50 volumes of ice-cold 50 mM Tris-HCl pH 7.4. The homogenates were centrifuged at 48,000 x g for 10 minutes, and the pellets were resuspended in the same volume of ice-cold buffer, centrifuged, and resuspended two more times. The final pellets were resuspended in 100 volumes of 50 mM Tris-HCl, pH 7.4, containing 0.1 % ascorbic acid and 10 µM pargyline. […] Non-specific binding was determined in the presence of 10 µM phentolamine. The incubations were terminated by rapid filtration through Whatman GF/B filters using a Brandel cell harvester, after which the filters were washed with 3x3 ml of ice-cold buffer. The radioactivity retained on the filters was determined by liquid scintillation counting.

COc1ccccc1N1CCN(CCCCN2C(=O)c3ccccc3C2=O)CC1 [NAN-190, 1-(2-methoxyphenyl)-4-[4-(2-phthalimido)-butyl]-piperazine]
AMPLITUDE mm Hg before treatment ([1]; 30 µg/kg i.v. group): 30.2±3.7 mm Hg | FREQUENCY No. contr./15 min before treatment ([1]; 30 µg/kg i.v. group): 13.5±1.2 No. contr./15 min | AMPLITUDE mm Hg after treatment ([1]; 30 µg/kg i.v.): 26.1±3.1 mm Hg | BLADDER CONTRACTIONS Disappearance time ([1]; 30 µg/kg i.v.): 1.80 min | FREQUENCY No. contr./15 min after treatment ([1]; 30 µg/kg i.v.): 11.8±1.5 No. contr./15 min | AMPLITUDE mm Hg before treatment ([1]; 100 µg/kg i.v. group): 22.5±1.7 mm Hg | FREQUENCY No. contr./15 min before treatment ([1]; 100 µg/kg i.v. group): 13.6±1.0 No. contr./15 min | AMPLITUDE mm Hg after treatment ([1]; 100 µg/kg i.v.): 17.3±2.9 mm Hg | BLADDER CONTRACTIONS Disappearance time ([1]; 100 µg/kg i.v.): 6.34 min | FREQUENCY No. contr./15 min after treatment ([1]; 100 µg/kg i.v.): 6.4±1.1 No. contr./15 min | AMPLITUDE mm Hg before treatment ([1]; 300 µg/kg i.v. group): 24.1±1.8 mm Hg | FREQUENCY No. contr./15 min before treatment ([1]; 300 µg/kg i.v. group): 11.8±1.1 No. contr./15 min | AMPLITUDE mm Hg after treatment ([1]; 300 µg/kg i.v.): 17.6±1.7 mm Hg | BLADDER CONTRACTIONS Disappearance time ([1]; 300 µg/kg i.v.): 5.47 min | FREQUENCY No. contr./15 min after treatment ([1]; 300 µg/kg i.v.): 6.6±1.1 No. contr./15 min | ED (10 min disappearance of contractions) ([1]; Rattus norvegicus, iv, 10 min, extrapolated dose inducing 10 min of disappearance of the contractions, linear regression): > 0.3 mg/kg | ED50 ([1]; Rattus norvegicus, iv, read-out: ED50 FREQUENCY (and 95% confidence limits), i.v., quantal criterion (change ≥30% relative to basal value)): 0.046 mg/kg | Ki (α1-adrenergic receptor): 4.8 nM
